Laboratory results taken from US9738668B2.
Entries after “also recorded” stand apart in the source; their conditions may differ.

Legend:
[1] = Solubility in solvents during LC method development; assay type: physicochemical
Experimental: During the development of a detection method for analytes 4, 8 and 15, multiple solvents were tested to find the optimal mobile phase. […] Acetonitrile was selected for better peak shape and compatibility with serum/brain protein precipitation. Compounds 8 and 15 were chosen as IS, because of their structural similarity. Selected reaction monitoring (SRM) acquisitions were used for sensitivity and extended dynamic range. The cone voltage and collision energy were optimized for 4, 8 and 15 and the IS by continuously infusing a mixture of the two. The optimum cone voltage was 30V.

[2] = tested on: hippocampal long-term potentiation; experiment: Hippocampal long-term potentiation (LTP) in slices from treated mice; assay type: in vivo; details: hippocampal slices from treated mAPP mice
Experimental: LTP was induced by theta-burst stimulation (TBS) 20 minutes after baseline recordings in hippocampal slices from Non-Tg mice treated with vehicle (n=9 slices from 3 mice), Non-Tg mice treated with Compound 8 (n=9 slices from 3 mice), mAPP mice treated with vehicle (n=8 slices from 3 mice), and mAPP mice treated with Compound 8 (n=8 slices from 3 mice). LTP is expressed as percentage potentiation of baseline (100%)(FIG. 5A).
LTP is expressed as percentage potentiation of baseline (100%)(FIG. 7A).
Synaptic failure in AD is largely reflected by impaired long-term synaptic plasticity in terms of long-term potentiation (LTP). […] Representative field excitatory post-synaptic potentials (fEPSP) waveforms are provided in FIGS. 5A and 7A and the residual potentiation from fEPSP slopes occurring over the last 5 minutes of LTP recording are provided in FIGS. 5B and 7B.

mAPP mice = experiment: Morris water maze learning and memory in Alzheimer's Disease transgenic mice; assay type: in vivo; details: for latency to find the hidden platform: treated vs untreated AD mice; for number of crossings at the target location / percent of time spent in the target quadrant: treated vs untreated mAPP mice, probe trial
Experimental: Wild-type mice (Non Tg) were also administered Compound 8 (n=5) and vehicle (n=5). Each mouse was given four 60-second trials per day for six consecutive days to find the hidden platform in a Morris water maze.
Wild-type mice were also administered Compound 8 […]. Each mouse was given four 60-second trials per day for seven consecutive days to find the hidden platform in a Morris water maze.
Each mouse was given four 60-second trials per day for six consecutive days to find the hidden platform in a Morris water maze.
In addition, the effect of Compounds 4 and 8 on learning and memory of Alzheimer's Disease (AD) transgenic mice was evaluated. Six month and 9-14 month-old transgenic mice overexpressing a mutated form of the human amyloid precursor protein (mAPP mice) and their wild-type (non Tg) littermates were used in this study. […] Moreover, performance in a spatial MWM trial was evaluated using crossings over the platform area (an index of memory precision; Morris (1984) J. Neurosci. Methods 11:47-60), percent of time spent in target quadrant (an index of memory retrieval; Morris (1984) J. Neurosci. Methods 11:47-60), and swim paths.

ABAD = assay type: biochemical
Experimental: Before the assay, all the assay components except SAAC were pre-incubated for 5 minutes, and the reaction started with the addition of SAAC into the reaction mix. The reaction was carried out for a total 6 minutes at room temperature under steady-state conditions, and the decrease of NADH absorbance at 340 nm was determined every 10 seconds. Kinetic data were analyzed by PRISM (Scitech, San Diego, Calif.) to determine IC50 values and Ki. One unit of enzyme activity was defined as that which converted 1.0 μmol of substrate to product per minute.

Row | SMILES | solubility in methanol or acetonitrile [1] | solubility in water [1] | hippocampal long-term potentiation (LTP) [2] | latency to find the hidden platform (mAPP mice) | number of crossings at the target location (mAPP mice) | percent of time spent in the target quadrant (mAPP mice) | inhibitory effect on SAAC reduction by ABAD (ABAD)
1 | COc1ccc2nc(N[C@@H](c3ccc(O)cc3)P(=O)(OC)OC)sc2c1 (racemic) [Compound 8, Dimethyl ((4-hydroxyphenyl)((6-methoxybenzo[d]thiazol-2-yl)amino)methyl)phosphonate] | dissolved readily | dissolved partially | impairments were diminished; also recorded: protective effects | significantly shorter latency | significantly more | significantly more | –
2 | COC(=O)c1cc([C@H](Nc2nc3ccc(OC)cc3s2)P(=O)(OC)OC)ccc1O [Compound 4, Methyl 5-((dimethoxyphosphoryl)((6-methoxybenzo[d]thiazol-2-yl)amino)methyl)-2-hydroxybenzoate] | dissolved readily | dissolved partially | impairments were diminished; also recorded: protective effects | significantly shorter latency | significantly more | significantly more | modest inhibitory effect
